Reference: ChEMBL document CHEMBL1156029, “The discovery of thienopyridine analogues as potent IkappaB kinase beta inhibitors. Part II” (Bioorg Med Chem Lett, 2009)
The source made the active and inactive calls. No cut-off for these calls is given here.

Key:
[1] = Inhibition of PKA at 10 uM
[2] = Plasma concentration in mouse at 10 mg/kg, po after 120 mins; type: ADME, organism-based; design: dose 10 mg/kg, route oral
[3] = biological target: T1, Inhibitor of nuclear factor kappa-B kinase subunit alpha (Homo sapiens, UniProt O15111); test: Inhibition of IKKalpha
T1 sequence (O15111 whole entry): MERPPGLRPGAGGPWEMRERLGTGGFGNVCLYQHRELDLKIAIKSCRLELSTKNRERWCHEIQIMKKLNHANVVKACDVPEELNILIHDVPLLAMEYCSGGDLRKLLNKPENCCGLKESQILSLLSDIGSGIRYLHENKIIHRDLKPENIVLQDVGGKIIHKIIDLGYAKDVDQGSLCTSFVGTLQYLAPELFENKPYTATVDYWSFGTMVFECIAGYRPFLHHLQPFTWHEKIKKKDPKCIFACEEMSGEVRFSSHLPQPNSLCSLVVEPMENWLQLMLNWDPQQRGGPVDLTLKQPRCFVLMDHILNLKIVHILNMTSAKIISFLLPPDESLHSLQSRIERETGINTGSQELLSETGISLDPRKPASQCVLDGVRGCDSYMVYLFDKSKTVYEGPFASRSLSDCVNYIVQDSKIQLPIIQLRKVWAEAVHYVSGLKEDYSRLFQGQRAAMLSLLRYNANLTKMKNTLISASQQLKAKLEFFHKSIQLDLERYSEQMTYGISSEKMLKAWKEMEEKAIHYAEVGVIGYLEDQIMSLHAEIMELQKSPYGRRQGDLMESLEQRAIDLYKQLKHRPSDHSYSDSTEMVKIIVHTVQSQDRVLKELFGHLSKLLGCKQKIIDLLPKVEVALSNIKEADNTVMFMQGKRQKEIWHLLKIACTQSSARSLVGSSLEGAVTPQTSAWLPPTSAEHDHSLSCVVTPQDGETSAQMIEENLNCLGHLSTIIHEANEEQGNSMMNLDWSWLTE

[4] = biological target: Tyrosine-protein kinase Lck (Homo sapiens) (UniProt P06239); test: Inhibition of Lck at 10 uM
Chain of Tyrosine-protein kinase Lck (Homo sapiens) (P06239 2-509 limits assumed): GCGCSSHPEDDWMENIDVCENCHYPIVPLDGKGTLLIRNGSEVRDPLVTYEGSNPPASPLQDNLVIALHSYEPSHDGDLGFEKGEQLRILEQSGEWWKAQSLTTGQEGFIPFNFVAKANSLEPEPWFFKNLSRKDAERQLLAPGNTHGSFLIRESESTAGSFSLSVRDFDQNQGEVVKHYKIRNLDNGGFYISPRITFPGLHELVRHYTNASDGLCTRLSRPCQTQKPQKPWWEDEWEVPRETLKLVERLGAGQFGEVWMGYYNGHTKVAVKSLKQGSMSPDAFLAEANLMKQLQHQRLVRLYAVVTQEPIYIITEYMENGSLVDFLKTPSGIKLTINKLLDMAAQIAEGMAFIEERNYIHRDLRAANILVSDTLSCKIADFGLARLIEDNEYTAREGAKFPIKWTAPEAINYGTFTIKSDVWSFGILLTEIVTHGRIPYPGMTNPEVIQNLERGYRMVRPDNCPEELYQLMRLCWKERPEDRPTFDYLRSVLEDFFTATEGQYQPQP

[5] = biological target: Insulin-like growth factor 1 receptor (Homo sapiens, UniProt P08069); test: Inhibition of IGF1R
[6] = biological target: Mitogen-activated protein kinase 1 (Homo sapiens) (UniProt P28482); test: Inhibition of MAPK2/ERK2 at 10 uM
Chain of Mitogen-activated protein kinase 1 (Homo sapiens) (P28482 whole entry): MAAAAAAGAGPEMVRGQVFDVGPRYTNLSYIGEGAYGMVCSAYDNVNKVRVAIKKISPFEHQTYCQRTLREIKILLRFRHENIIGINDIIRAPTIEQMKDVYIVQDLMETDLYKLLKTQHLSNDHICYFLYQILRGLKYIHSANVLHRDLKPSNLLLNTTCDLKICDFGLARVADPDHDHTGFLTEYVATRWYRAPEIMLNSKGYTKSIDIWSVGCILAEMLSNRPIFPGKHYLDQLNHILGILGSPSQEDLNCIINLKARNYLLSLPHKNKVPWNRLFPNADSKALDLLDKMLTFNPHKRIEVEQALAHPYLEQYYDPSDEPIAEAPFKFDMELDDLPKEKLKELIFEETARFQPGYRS

[7] = biological target: Ephrin type-A receptor 2 (Homo sapiens, UniProt P29317); test: Inhibition of Eck
[8] = Inhibition of CK2 at 10 uM
[9] = biological target: Vascular endothelial growth factor receptor 1 (Homo sapiens, UniProt P17948); test: Inhibition of VEGFR1
Chain of Vascular endothelial growth factor receptor 1 (P17948 whole entry): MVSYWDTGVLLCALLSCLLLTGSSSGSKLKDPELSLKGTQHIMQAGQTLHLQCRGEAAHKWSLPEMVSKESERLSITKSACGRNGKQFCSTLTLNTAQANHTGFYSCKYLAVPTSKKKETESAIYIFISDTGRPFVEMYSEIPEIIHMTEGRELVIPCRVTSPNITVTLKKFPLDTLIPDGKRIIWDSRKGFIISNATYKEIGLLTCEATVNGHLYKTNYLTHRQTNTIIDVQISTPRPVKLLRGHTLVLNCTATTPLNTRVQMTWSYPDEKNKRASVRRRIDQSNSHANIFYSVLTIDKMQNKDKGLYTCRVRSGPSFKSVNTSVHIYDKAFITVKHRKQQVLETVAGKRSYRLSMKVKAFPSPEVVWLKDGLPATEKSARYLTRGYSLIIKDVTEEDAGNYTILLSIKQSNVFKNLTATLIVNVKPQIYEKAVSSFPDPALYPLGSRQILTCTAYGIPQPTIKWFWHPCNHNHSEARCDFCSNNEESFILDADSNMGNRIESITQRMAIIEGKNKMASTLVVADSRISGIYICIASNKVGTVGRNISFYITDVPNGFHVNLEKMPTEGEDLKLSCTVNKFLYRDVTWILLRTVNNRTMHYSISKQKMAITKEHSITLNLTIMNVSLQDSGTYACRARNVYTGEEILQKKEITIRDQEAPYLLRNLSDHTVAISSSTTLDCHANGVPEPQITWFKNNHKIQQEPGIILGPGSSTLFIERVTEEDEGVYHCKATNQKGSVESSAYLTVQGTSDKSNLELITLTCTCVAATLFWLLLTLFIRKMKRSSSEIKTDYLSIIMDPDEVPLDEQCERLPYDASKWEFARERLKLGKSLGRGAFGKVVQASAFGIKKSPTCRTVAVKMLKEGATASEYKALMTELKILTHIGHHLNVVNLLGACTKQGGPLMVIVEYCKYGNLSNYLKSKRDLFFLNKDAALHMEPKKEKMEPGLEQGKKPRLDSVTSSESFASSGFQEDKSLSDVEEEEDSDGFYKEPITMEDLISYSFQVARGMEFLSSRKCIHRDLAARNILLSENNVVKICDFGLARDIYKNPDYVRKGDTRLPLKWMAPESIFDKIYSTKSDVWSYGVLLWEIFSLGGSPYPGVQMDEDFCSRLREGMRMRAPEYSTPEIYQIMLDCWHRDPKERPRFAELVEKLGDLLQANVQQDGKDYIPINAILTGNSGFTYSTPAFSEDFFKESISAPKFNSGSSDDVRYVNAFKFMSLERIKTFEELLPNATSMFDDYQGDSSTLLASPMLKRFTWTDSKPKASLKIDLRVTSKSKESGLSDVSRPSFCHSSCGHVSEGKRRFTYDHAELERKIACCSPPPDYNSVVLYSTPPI

[10] = biological target: T2, Mitogen-activated protein kinase 12 (Homo sapiens) (UniProt P53778); test: Inhibition of p38-gamma at 10 uM
T2 sequence (whole entry): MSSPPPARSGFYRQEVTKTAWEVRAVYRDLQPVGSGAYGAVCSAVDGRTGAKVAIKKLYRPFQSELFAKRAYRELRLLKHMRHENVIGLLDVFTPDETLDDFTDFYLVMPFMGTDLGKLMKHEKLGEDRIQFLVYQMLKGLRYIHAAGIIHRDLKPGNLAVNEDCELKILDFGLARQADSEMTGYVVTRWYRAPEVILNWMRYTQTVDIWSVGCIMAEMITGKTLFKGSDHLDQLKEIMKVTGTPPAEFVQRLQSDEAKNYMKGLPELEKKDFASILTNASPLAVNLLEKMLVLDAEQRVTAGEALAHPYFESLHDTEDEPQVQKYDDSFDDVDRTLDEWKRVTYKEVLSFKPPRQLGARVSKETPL

[11] = test system: Mus musculus; test: Inhibition of LPS-induced TNFalpha production in mouse at 10 mg/kg, po administered 60 mins before LPS challenge; type: functional
[12] = biological target: Protein kinase C alpha type (Homo sapiens) (UniProt P17252); test: Inhibition of PKCalpha at 10 uM
[13] = biological target: Mitogen-activated protein kinase 11 (Homo sapiens) (UniProt Q15759); test: Inhibition of p38beta2 at 10 uM
Chain of Mitogen-activated protein kinase 11 (Homo sapiens) (Q15759 whole entry): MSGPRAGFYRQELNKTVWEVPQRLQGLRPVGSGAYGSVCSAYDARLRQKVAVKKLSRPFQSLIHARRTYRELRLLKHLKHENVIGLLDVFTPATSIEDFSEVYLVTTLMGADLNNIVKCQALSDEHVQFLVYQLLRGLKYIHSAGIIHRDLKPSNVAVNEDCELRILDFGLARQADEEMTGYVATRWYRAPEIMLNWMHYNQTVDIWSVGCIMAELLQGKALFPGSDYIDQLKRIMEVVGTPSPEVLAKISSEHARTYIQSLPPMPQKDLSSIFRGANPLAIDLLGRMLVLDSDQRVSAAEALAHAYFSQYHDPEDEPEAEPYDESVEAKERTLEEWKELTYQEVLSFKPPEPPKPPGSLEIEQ

[14] = biological target: Tyrosine-protein kinase BTK (Homo sapiens, UniProt Q06187); test: Inhibition of Btk
[15] = biological target: T3, Mitogen-activated protein kinase 13 (Homo sapiens) (UniProt O15264); test: Inhibition of p38delta at 10 uM
T3 sequence (whole entry): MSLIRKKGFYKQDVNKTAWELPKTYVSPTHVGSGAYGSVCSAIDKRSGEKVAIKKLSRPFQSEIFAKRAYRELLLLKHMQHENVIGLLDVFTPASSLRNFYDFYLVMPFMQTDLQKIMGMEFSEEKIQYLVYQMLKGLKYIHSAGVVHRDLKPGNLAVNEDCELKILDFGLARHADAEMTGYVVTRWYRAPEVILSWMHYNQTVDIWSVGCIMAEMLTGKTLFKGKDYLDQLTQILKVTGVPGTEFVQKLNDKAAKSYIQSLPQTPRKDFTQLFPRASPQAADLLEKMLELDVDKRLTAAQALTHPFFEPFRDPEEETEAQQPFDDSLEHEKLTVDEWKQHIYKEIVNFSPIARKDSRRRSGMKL

[16] = biological target: Hepatocyte growth factor receptor (Homo sapiens, UniProt P08581); test: Inhibition of HGFR
[17] = biological target: Dual specificity mitogen-activated protein kinase kinase 1 (Homo sapiens) (UniProt Q02750); test: Inhibition of MKK1 at 10 uM
Chain of Dual specificity mitogen-activated protein kinase kinase 1 (Homo sapiens) (Q02750 whole entry): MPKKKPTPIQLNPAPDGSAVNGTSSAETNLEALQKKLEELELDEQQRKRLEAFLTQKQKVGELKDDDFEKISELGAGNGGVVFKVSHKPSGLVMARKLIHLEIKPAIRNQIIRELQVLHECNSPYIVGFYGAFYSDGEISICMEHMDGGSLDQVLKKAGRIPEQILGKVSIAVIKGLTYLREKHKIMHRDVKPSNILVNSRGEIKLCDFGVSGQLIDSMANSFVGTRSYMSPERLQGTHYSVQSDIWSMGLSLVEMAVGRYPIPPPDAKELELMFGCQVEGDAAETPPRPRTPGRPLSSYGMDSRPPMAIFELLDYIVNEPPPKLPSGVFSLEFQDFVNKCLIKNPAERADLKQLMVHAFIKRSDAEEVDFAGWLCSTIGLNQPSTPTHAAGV

[18] = biological target: T4, Serine/threonine-protein kinase Sgk1 (Homo sapiens) (UniProt O00141); test: Inhibition of SGK at 10 uM
T4 sequence (whole entry): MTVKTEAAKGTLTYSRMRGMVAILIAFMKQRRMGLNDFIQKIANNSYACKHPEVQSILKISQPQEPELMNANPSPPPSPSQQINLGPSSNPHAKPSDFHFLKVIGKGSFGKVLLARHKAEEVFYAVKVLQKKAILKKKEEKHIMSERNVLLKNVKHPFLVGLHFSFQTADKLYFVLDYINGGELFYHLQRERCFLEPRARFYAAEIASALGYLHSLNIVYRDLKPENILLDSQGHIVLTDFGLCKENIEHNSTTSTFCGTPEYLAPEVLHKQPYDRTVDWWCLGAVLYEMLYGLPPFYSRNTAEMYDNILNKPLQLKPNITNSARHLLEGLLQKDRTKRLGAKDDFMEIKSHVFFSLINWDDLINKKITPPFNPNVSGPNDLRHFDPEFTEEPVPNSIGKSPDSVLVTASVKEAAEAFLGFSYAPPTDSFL

[19] = Inhibition of JNK/SAPK1c at 10 uM
[20] = biological target: Ribosomal protein S6 kinase alpha-1 (Homo sapiens) (UniProt Q15418); test: Inhibition of MAPKAPK-1a at 10 uM
Chain of Ribosomal protein S6 kinase alpha-1 (Homo sapiens) (Q15418 whole entry): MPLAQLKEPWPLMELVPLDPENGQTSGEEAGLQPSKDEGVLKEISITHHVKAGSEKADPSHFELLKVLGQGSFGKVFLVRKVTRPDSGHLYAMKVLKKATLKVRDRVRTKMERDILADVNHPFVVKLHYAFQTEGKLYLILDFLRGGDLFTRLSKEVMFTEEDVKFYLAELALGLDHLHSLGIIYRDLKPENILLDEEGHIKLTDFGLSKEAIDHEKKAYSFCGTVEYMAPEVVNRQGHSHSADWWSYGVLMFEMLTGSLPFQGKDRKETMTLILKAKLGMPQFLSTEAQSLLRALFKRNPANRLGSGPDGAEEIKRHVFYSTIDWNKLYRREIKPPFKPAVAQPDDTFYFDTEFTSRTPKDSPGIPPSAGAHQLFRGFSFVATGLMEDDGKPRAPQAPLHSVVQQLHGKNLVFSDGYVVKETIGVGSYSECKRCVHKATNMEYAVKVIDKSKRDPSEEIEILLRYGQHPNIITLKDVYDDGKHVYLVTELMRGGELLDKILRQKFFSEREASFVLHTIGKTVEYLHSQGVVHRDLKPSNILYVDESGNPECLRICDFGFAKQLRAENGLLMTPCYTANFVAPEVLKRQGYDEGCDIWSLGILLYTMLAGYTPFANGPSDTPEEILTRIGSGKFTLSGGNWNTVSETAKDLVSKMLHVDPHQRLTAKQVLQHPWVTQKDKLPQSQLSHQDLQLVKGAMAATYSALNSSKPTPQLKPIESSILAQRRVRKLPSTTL

[21] = Inhibition of PP2a at 10 uM
[22] = Inhibition of PH domain deficient PKBdelta at 10 uM
[23] = biological target: Casein kinase I isoform alpha (Homo sapiens) (UniProt P48729); test: Inhibition of CK1 at 10 uM
Chain of Casein kinase I isoform alpha (Homo sapiens) (P48729 2-337 limits assumed): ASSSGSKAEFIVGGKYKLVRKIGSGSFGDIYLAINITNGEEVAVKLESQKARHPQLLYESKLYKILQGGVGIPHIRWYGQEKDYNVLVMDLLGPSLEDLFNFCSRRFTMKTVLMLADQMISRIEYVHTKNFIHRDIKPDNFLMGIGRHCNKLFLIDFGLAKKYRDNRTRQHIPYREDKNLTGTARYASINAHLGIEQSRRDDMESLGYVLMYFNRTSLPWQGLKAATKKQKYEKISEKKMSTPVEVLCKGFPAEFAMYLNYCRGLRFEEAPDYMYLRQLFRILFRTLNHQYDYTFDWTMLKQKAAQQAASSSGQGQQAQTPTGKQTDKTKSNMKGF

[24] = Inhibition of PHOS Kinase at 10 uM
[25] = biological target: High affinity nerve growth factor receptor (Homo sapiens, UniProt P04629); test: Inhibition of TrkA

Activity [1] | concentration at 2 h [2] | IC50 [3] | Activity [4] | IC50 [5] | Activity [6] | IC50 [7] | Activity [8] | IC50 [9] | Activity [10] | Activity [12] | Activity [13] | IC50 [14] | Activity [15] | Activity [17] | Activity [18] | Activity [19] | Activity [20] | Activity [21] | SMILES | inhibition in vivo at 10 mg/kg [11] | further results
inactive | 1600 nM | 11.2 µM | inactive | > 7 µM | inactive | > 7 µM | inactive | > 7 µM | inactive | inactive | inactive | > 7 µM | inactive | inactive | inactive | inactive | inactive | inactive | CCCc1cc(N2CCC(O)CC2)nc2sc(C(N)=O)c(N)c12 | 42% | IC50 [16]: > 7 µM; Activity [22]: inactive; Activity [23]: inactive; Activity [24]: inactive
inactive | < 10 nM | 3.4 µM | inactive | > 7 µM | inactive | > 7 µM | inactive | > 7 µM | inactive | inactive | inactive | > 7 µM | inactive | inactive | inactive | inactive | inactive | inactive | CCCc1cc(N2CCNCC2)nc2sc(C(N)=O)c(N)c12 | 12% | IC50 [25]: > 7 µM; IC50 [16]: > 7 µM; Activity [22]: inactive; Activity [23]: inactive; Activity [24]: inactive
inactive | < 10 nM | 0.09 µM | inactive | > 7 µM | inactive | > 7 µM | inactive | > 7 µM | inactive | inactive | inactive | > 7 µM | inactive | inactive | inactive | inactive | inactive | inactive | CCCc1cc(N2CCC(N)CC2)nc2sc(C(N)=O)c(N)c12 | 17% | IC50 [25]: > 7 µM; Activity [22]: inactive; Activity [23]: inactive; Activity [24]: inactive
inactive | 170 nM | 13.3 µM | inactive | > 7 µM | inactive | > 7 µM | inactive | > 7 µM | inactive | inactive | inactive | > 7 µM | inactive | inactive | inactive | inactive | inactive | inactive | CCCc1cc(N2CCCC(O)C2)nc2sc(C(N)=O)c(N)c12 (stereo not drawn) | 14% | IC50 [25]: > 7 µM; IC50 [16]: > 7 µM; Activity [22]: inactive; Activity [23]: inactive; Activity [24]: inactive
